Laboratory results from ChEMBL document CHEMBL4229347, “Design, synthesis, and biological evaluation of novel ubiquitin-activating enzyme inhibitors” (2018).
Calls of active or inactive are those of the source. The calls are words filed in the database; no cut-off is given here.

Key:
[1] = biological target: T1, Ubiquitin-like modifier-activating enzyme 1 (Homo sapiens) (UniProt P22314); experiment: Inhibition of recombinant human E1 expressed in Escherichia coli BL21(DE3) assessed as reduction in biotin-labelled ubiquitin-E1 conjugate formation pretreated for 30 mins followed by biotin-labelled ubiquitin addition and measured after 30 mins by Western blot analysis
T1 sequence (whole entry): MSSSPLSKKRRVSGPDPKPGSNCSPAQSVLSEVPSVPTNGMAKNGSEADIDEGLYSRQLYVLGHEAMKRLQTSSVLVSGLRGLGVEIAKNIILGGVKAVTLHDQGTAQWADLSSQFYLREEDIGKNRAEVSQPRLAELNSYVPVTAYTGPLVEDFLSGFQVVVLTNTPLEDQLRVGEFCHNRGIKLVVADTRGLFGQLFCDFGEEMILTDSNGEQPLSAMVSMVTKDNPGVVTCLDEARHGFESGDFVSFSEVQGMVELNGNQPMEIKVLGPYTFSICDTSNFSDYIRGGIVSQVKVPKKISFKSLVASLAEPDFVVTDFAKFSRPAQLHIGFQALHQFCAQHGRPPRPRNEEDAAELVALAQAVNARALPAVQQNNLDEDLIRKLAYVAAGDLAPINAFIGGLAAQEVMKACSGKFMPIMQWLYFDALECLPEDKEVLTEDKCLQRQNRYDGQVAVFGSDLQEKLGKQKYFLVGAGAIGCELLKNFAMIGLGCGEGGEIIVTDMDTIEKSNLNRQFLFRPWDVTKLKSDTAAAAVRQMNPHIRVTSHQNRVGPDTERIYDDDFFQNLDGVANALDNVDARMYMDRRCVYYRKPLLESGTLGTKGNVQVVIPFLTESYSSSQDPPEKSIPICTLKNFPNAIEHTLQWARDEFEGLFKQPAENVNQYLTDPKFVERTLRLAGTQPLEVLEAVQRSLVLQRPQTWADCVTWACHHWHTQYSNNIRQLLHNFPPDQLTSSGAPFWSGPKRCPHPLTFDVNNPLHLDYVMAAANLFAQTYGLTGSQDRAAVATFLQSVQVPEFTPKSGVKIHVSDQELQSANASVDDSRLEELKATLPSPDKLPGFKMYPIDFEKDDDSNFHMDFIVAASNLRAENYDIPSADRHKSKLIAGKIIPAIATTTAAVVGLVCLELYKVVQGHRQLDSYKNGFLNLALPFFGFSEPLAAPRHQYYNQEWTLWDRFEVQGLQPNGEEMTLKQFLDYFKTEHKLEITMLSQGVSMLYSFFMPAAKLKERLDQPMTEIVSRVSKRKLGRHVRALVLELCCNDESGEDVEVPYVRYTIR

[2] = biological target: Ubiquitin-conjugating enzyme E2 D2 (Homo sapiens) (UniProt P62837); experiment: Inhibition of E2 (unknown origin) assessed as reduction in biotin-labelled ubiquitin-E2 conjugate formation pretreated for 30 mins followed by biotin-labelled ubiquitin addition and measured after 60 mins in presence of E1 by Western blot analysis
Ubiquitin-conjugating enzyme E2 D2 (Homo sapiens), sequence (P62837 whole entry, looked up): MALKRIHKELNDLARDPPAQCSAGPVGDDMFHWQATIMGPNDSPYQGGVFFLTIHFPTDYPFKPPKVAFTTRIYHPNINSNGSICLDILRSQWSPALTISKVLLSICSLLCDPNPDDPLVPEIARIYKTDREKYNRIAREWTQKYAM

[3] = biological target: T1, Ubiquitin-like modifier-activating enzyme 1 (Homo sapiens); experiment: (§1) Reversible inhibition of recombinant human E1 expressed in Escherichia coli BL21(DE3) assessed as reduction in biotin-labelled ubiquitin-E1 conjugate formation at 100 uM pretreated for 60 mins followed by 2.5 uM biotin-labelled ubiquitin addition for 30 mins and subsequent 5 uM biotin-labelled ubiquitin addition by Western blot analysis
[4] = biological target: T1, Ubiquitin-like modifier-activating enzyme 1 (Homo sapiens); experiment: as §1, with “ubiquitin addition measured after 30 mins by Western” for “ubiquitin addition by Western”
[5] = biological target: T1, Ubiquitin-like modifier-activating enzyme 1 (Homo sapiens); experiment: Inhibition of E1 in human MCF7 cells assessed as increase in p53 levels at 100 uM measured after 24 hrs by Western blot analysis; type: cell-based
[6] = tested on: MCF7; experiment: Growth inhibition of human MCF7 cells after 72 hrs by alamar blue assay; type: functional; conditions: MCF7, 72 h
[7] = biological target: T1, Ubiquitin-like modifier-activating enzyme 1 (Homo sapiens); experiment: Inhibition of recombinant human E1 expressed in Escherichia coli BL21(DE3) assessed as reduction in biotin-labelled ubiquitin-E1 conjugate formation up to 1000 uM pretreated for 30 mins followed by biotin-labelled ubiquitin addition and measured after 30 mins by Western blot analysis
[8] = biological target: Ubiquitin-conjugating enzyme E2 D2 (Homo sapiens) (UniProt P62837); experiment: Inhibition of E2 (unknown origin) assessed as reduction in biotin-labelled ubiquitin-E2 conjugate formation at 10 to 1000 uM pretreated for 30 mins followed by biotin-labelled ubiquitin addition and measured after 60 mins in presence of E1 by Western blot analysis

SMILES	inhibition [1]	inhibition [2]	inhibition [3]	inhibition [4]	inhibition [5]	GI50 [6]	inhibition [7]	inhibition [8]
COC(=O)CNC(=O)CCCc1ccc(OCCCNC(=O)c2ccccc2)c(CCCC(C)C)c1	Dose-dependent effect	Dose-dependent effect	Active	Active	Active	63.4 µM	–	–
COC(=O)CNC(=O)CCCc1ccc(OCCCN)c(CCCC(C)C)c1	–	–	–	–	–	–	inactive	inactive
COC(=O)CNC(=O)CCCc1ccc(OCCCNC(C)=O)c(CCCC(C)C)c1	–	–	–	–	–	–	Active	inactive
